In patent publication US6887895B2, “Pseudolaric acid-B derivatives, their preparation and pharmaceutical compositions” (Shanghai Institute of Materia Medica Chinese Academy of …, priority 2001, dated 2005):
pIC50: −log10 of the molar value. ≈ marks a conversion by molar mass, not a printed value. Read-outs that look alike come from different tables or passages of the source. One block for each compound: values may come before it.

Columns and labels:
[1] = tested on: A549 human lung adenocarcinoma cells; assay: A549 proliferation assay (SRB); assay type: cell-based
Method: (§1) To evaluate the anti-tumor pharmacological activity of the compounds of the invention, the anti-proliferation activity thereof was assayed using P388 murin leukemia cells and A549 human lung adenocarcinoma cells; the anti-angiogenic activity, a newer target of antitumor, was measured using human microvascular endothelial cells (HMEC). Pseudolarix acid-B and hydroxycamptothecin were used as reference compounds in the evaluation.
(§2) P388, A549 and HMEC Proliferation Assay
(§3) Materials: DMEM was purchased from Gibco (Life Technologies, Grand Island, N.Y., USA). Sulforodamine B (SRB) and MTT were obtained from Sigma; TCA […] and Tris base buffer were analytical pure products made in China.
(§4) SRB assay: Tumor (A549 and HMEC) cells in logarithmic growth were plated in DMEM media in the wells of a 96-well plate (5×10^3 cells/90 μL/well) and serial dilutions of the compounds (10 μL) prepared in medium were added. Experiments at each concentration of compounds were performed in triplicate with controls of normal saline and cell-free withered wells. The plates were incubated at 37° C., 5% CO2, for 72 hr. The media were decanted and cells were fixed with cold (4° C.) 10% trichloroacetic acid, followed by incubation at 4° C. for 1 hr. Then plates were washed with deionised water five times and allowed to air dry and stained by addition of 100 μL/well SRB solution [0.4% SRB (Sigma) in 1% acetic acid (W/V)] for 15 min. Following staining, plates were quickly washed five times with 1% acetic acid to remove unbound dye, and allowed to air dry. Bound dye was solubilized with Tris buffer (pH 10.5) prior to reading plates. The OD was measured with a multiwell spectrophotometer (VERSAmax, Molecular Devices, USA) at a wavelength of 520 nm.
(§5) The rate of inhibition on the growth of cancer cells was calculated by the formula: Rate of growth inhibition=[1−(A520 treated/A520 control)]×100%
(§6) The result was also expressed as IC50 (the drug concentration reducing by 50% the absorbance in treated cells, with respect to untreated cells) that was calculated by Logit method. The mean IC50 was determined according to the data from three independent tests.

[2] = tested on: P388 murin leukemia cells; assay: P388 proliferation assay (MTT); assay type: cell-based, murine
Method: as §1, §2, §3
MTT assay: P388 cells were seeded at a density of 1.5×10^5/ml into wells of 96-well plates and incubated with complete medium. After 24 hr, serial dilutions of the compounds (10 μL) prepared in medium were added. Experiments at each concentration of compounds were performed in triplicate with controls of cell-free withered wells and cell-free withered wells at corresponding concentration of compounds, if it is colored. The plates were incubated at 37° C., 5% CO2, for 48 hr. Then, 20 μL aliquots of MTT (Sigma) solution (5 mg/mL) in saline were added directly to all the appropriate wells. The culture was continuously incubated for 4 hr. Then 50 μL “triplex solution” (10% SDS-5% isobutanol- 0.01M HCl) was added into each well. After the plates were incubated at 37° C. overnight, the values of absorbance at 520 nm were measured by using a plate reader (VERSA Max, Molecular Devices).
as §5, §6

Trichophyton rubrum = assay: Antifungal screening, agar diluting method; assay type: cell-based
From the text: Screening on Antifungal Activities
The action on Trichophyton rubrum was observed using agar diluting method. The drug concentration in the Petridish on which no growth of fungus observed is the minimun inhibition concentration.

[3] = tested on: human microvascular endothelial cells (HMEC); assay: HMEC proliferation assay (SRB), anti-angiogenic activity; assay type: cell-based
Method: as §1, §2, §3, §4, §5
The result was also expressed as IC50 (the drug concentration reducing by 50% the absorbance in treated cells, with respect to untreated cells) that was calculated by Logit method. […]

Candida albicans = assay: Antifungal screening, liquid diluting method; assay type: cell-based
From the text: Screening on Antifungal Activities The action on Candida albicans was observed using liquid diluting method. The drug concentration in the tube in which no growth of fungus observed is the minimun inhibition concentration.

Sarcoma 180 cell = assay: Sarcoma 180 tumor growth inhibition in mice; assay type: in vivo, Kunming strain female mice; settings: for Tumor weight: S-180 mice; for Inhibition %: tumor growth vs control
Method: (§7) 30 Kunming strain female mice weighing 18-22 g were used. Suspensions of well grown Sarcoma 180 cell were implanted subcutaneously into the right axilla region of the mice, about 4.5-5×10^6 cells/mouse. The animals were grouped randomly 24 hours after the implantation. Daily treatment with drugs or normal saline commenced 1 day after implantation of S-180 cells. Mice were administered by i.p. injection with vehicle or compounds once a day for consecutive 6 days. All the mice were euthanized after the last administration. The mice and the tumors were weighed. The average weights of tumors of each group were calculated and rate of inhibition of tumor growth in vivo was calculated using the following formula: [formula]

[4] = Body weight of Sarcoma 180-bearing mice under treatment; assay type: in vivo, Kunming strain female mice
Method: as §7

[5] = Homo sapiens, A549 cells, SRB, 72 hr, read-out: IC50
[6] = Mus musculus, P388 cells, MTT, 48 hr, read-out: IC50
[7] = 5 mg/kg i.p. once a day for 6 days
[8] = 10 mg/kg i.p. once a day for 6 days
[9] = 15 mg/kg i.p. once a day for 6 days

SMILES: COC(=O)C1=CC[C@]23CC[C@H](C(C)(/C=C/C=C(\C)C(=O)O)OC2=O)[C@]3(OC(=O)Cc2ccc(Cl)cc2)CC1 (stereo partly shown) [PEX-24Y]
pIC50 [2, 6]: 9.59
pIC50 [1, 5]: 7.16

SMILES: CC(=O)O[C@@]12CCC(C(=O)OCC3CCCCC3)=CC[C@@]13CC[C@@H]2C(C)(/C=C/C=C(\C)C(=O)O)OC3=O (stereo partly shown) [PEX-31Y]
pIC50 ([2]; Mus musculus, P388, 48 h): > 10.00
pIC50 ([1]; Homo sapiens, A549, 72 h): > 10.00

SMILES: CC[C@@]1(O)C(=O)OCc2c1cc1n(c2=O)Cc2cc3cc(O)ccc3nc2-1 [hydroxycamptothecin]
pIC50 ([3]; Homo sapiens, HMEC, 72 h): 6.33

The next lines start with results.

pIC50 [1, 5]: 6.82
SMILES: COC(=O)C1=CC[C@]23CC[C@H](C(C)(/C=C/C=C(\C)C(=O)Nc4cccc(O)c4)OC2=O)[C@]3(OC(C)=O)CC1 (stereo partly shown) [PEX-15Y]

MIC (Trichophyton rubrum; Trichophyton rubrum, read-out: MIC (μg/ml) (Trichophyton rubrum)): 12.5 µg/mL (≈ 25.1 µM)
MIC (Candida albicans; Candida albicans, read-out: MIC (μg/ml) (Candida albicans)): 6.25 µg/mL (≈ 12.5 µM)
pIC50 [2, 6]: > 10.00
pIC50 [1, 5]: 7.26
SMILES: CC(=O)O[C@@]12CCC(C(=O)OCc3ccco3)=CC[C@@]13CC[C@@H]2C(C)(/C=C/C=C(\C)C(=O)O)OC3=O (stereo partly shown) [PEX-25Y]
pIC50 ([3]; Homo sapiens, HMEC cells, SRB, 72 hr, read-out: IC50): 9.00
Tumor weight (Sarcoma 180 cell; [7]): 0.30 ± 0.23 g
Inhibition % (Sarcoma 180 cell; [7]): 64.3%
Tumor weight (Sarcoma 180 cell; [8]): 0.26 ± 0.11 g
Inhibition % (Sarcoma 180 cell; [8]): 69.0%
Tumor weight (Sarcoma 180 cell; [9]): 0.28 ± 0.13 g
Inhibition % (Sarcoma 180 cell; [9]): 66.7%
Body weight (g) At last ([4]; 5 mg/kg i.p. once a day for 6 days, beginning 20.4 g): 21.1 g
Body weight (g) At last ([4]; 10 mg/kg i.p. once a day for 6 days, beginning 20.4 g): 19.7 g
Body weight (g) At last ([4]; 15 mg/kg i.p. once a day for 6 days, beginning 20.5 g): 21.2 g

MIC (μg/ml) (Trichophyton rubrum) (Trichophyton rubrum): 50.0 µg/mL (≈ 116 µM)
MIC (μg/ml) (Candida albicans) (Candida albicans): 12.5 µg/mL (≈ 28.9 µM)
pIC50 ([2]; P388 cells, MTT, 48 hr, read-out: IC50): 9.08
pIC50 ([1]; A549 cells, SRB, 72 hr, read-out: IC50): 7.55
SMILES: COC(=O)C1=CC[C@@]23CC[C@@H]([C@@](C)(/C=C/C=C(\C)C(=O)O)OC2=O)[C@@]3(OC(C)=O)CC1 [Pseudolarix acid-B, pseudolaric acid B, reference compound]
pIC50 ([3]; HMEC cells, SRB, 72 hr, read-out: IC50): 7.10
